In patent publication EP0391644B1, “Aryl-substituted rhodanine derivatives” (ELI LILLY AND COMPANY, priority 1989, dated 1990):
Several values for one entry are separate records, joined by “and”; a condition that tells them apart may be missing. Equal entries are not always repeated.

Key:
[1] = tested on: ischemia-induced brain damage in the hippocampal CA1 region; assay: Stroke model in rats; format: in vivo, Male Wistar rats; details: mean ± standard error, scale 0 = no damage to 3 = severe damage of CA1 layer
From the text: Strokes were produced in rats by occluding the four arteries that supply blood to the brain according to the following procedure. Male Wistar rats were anesthetized with Metofane and placed into a stereotaxic instrument. A longitudinal incision was made on the dorsal surface of the neck. The neck muscles were reflected to expose the dorsal surface of the spinal column. The two vertebral arteries were exposed where they pass through the first cervical vertebra. Both arteries were permanently occluded by the application of electrocautery. After coagulation of the vertebral arteries, the rat was removed from the stereotaxic instrument and the surgical wound was sutured. Two longitudinal incisions were then made on the ventral surface of the neck. The two common carotid arteries were exposed and dissected free from surrounding nerves and connective tissue. An atraumatic clasp, fabricated mainly from silicon rubber tubing, was placed around each carotid artery in a manner such that the vessel was not traumatized or occluded. The surgical wounds were then closed. The atraumatic clasps were designed in such a manner that they could be tightened to occlude the carotid arteries by pulling on a small silastic thread that was allowed to protrude from the wound. Circulation to the brain through the carotids could be restored by relieving the tension on the silastic threads. After the surgery, the rats were allowed to recover for 24 hours.
On the day of testing, compounds were suspended in 2% acacia and were administered orally at various times before stroke induction. Strokes (cerebral ischemia) were induced by tightening the clasps around the carotids for a period of 30 minutes. During this time, rats in which strokes had successfully been produced lost the righting reflex and became unresponsive to stimuli. After 30 minutes of ischemia, tension on the clasps was removed and blood flow to the brain restored. Rats were again treated with compounds on the morning after the stroke. On the third day after the stroke the animals received an overdose of barbituate anesthetic, and the brain was perfused in situ with 10% neutral, buffered formalin. After perfusion with amounts of formalin adequate to fix the brain, the brains were removed and stored in 10% formalin until histological sections could be prepared.
One of the areas of the brain that is most susceptible to ischemia induced damage both in the rat and the human is the CA1 pyramidal cell layer of the hippocampus. In animals that remain unresponsive for the 30 minute period of ischemia, the CA1 pyramidal cell layer is completely destroyed. This layer of cells was examined microscopically in histological sections prepared from the hippocampus. Brain damage was rated according to the following scale: 0 = no damage, completely intact cell layer 1 = mild damage, one-third of CA1 layer dead 2 = moderate damage, two-thirds of CA1 layer dead 3 = severe damage, complete destruction of CA1 layer
Damage in 10-12 sections from each brain was assessed in order to obtain an accurate estimate of damage. An average damage score was calculated for each treatment group. Scores from treated groups were compared statistically with scores from control groups which received only the vehicle (2% acacia) that was used to suspend the compounds. The level of significance was determined using Student's "t-test".

[2] = tested on: adjuvant-induced arthritis; assay: Developing Adjuvant-Induced Arthritis Test in Rats; format: in vivo, male Lewis-Wistar rats; details: Rattus norvegicus, po, 720 h, AUC of uninjected paw volumes, Days 16 through 30, read-out: % Inhibition of Uninjected Paw Volume Inflammation; for inhibition in vivo at 50 mg/kg: 50 mg/kg P.O. x 29
[3] = tested on: Dystrophic mice (dy/dy); assay: Muscular Dystrophy Animal Model; format: in vivo
Method: Dystrophic mice (dy/dy) were obtained from Jackson Laboratories after weaning (approximately 21 days) and treatment with the compounds shown in Table V was begun at the first sign of dystrophy. The compounds that were tested were administered in the diet and lifespan was measured during the course of treatment. The food and water sources were located in different parts of the cage requiring the animals to walk from the food source to the water source to survive.

[4] = tested on: inflammation; assay: Carrageenin Assay; format: in vivo; details: Rattus norvegicus, po; 50 mg/kg orally by gavage; carrageenin-injected hind paws of rats; read-out: Percent Inhibition
Method: The compounds were evaluated for antiinflammatory activity in the test method described by C.A. Winter, Proc. Soc. Exp. Biol. Med., 111, 544 (1962). In this test, inflammation is created by injecting carrageenin into the hind paws of rats. Test compounds are administered prior to injection to determine percent inhibition of the subsequent inflammation in comparison with control animals.

[5] = 100 mg/kg given orally as a suspension in 2% acacia
[6] = 0.03 percent by weight of compound in diet
[7] = 50 mg/kg given orally as a suspension in 2% acacia

SMILES	Damage Score [1, 5]	inhibition in vivo at 50 mg/kg [2]	also measured
CC(C)(C)c1cc(C=C2SCN(CC(N)=O)C2=O)cc(C(C)(C)C)c1O [Example 5, 5-{[3,5-bis(1,1-dimethylethyl)-4-hydroxyphenyl]methylene}-4-oxo-3-thiazolidineacetamide]	1.8 ± 0.4 (p=0.05)	7%	
CSCCN1CSC(=Cc2cc(C(C)(C)C)c(O)c(C(C)(C)C)c2)C1=O [Example 6, 5-{[3,5-bis(1,1-dimethylethyl)-4-hydroxyphenyl]methylene}-3-[2-(methylthio)ethyl]-4-thiazolidinone]	2.5 ± 0.2		
COCCN1CSC(=Cc2cc(C(C)(C)C)c(O)c(C(C)(C)C)c2)C1=O [Example 7, 5-{[3,5-bis(1,1-dimethylethyl)-4-hydroxyphenyl]methylene}-3-(2-methoxyethyl)-4-thiazolidinone]	2.5 ± 0.2	30%	
CN1CSC(=Cc2cc(C(C)(C)C)c(O)c(C(C)(C)C)c2)C1=O [Example 10, 5-{[3,5-bis(1,1-dimethylethyl)-4-hydroxyphenyl]methylene}-3-methyl-4-thiazolidinone]	0.75 ± 0.26 (p<0.02)	57%	Average Life Span [3, 6]: 93 days and 112 days and 90 days and 80 days and 110 days; Average Life Span ([3]; 0.08 percent by weight of compound in diet): 45 days and 67 days; Average Life Span ([3]; 0.3 percent by weight of compound in diet): 83 days
CN1CSC(Cc2cc(C(C)(C)C)c(O)c(C(C)(C)C)c2)C1=O (stereo not drawn) [Example 11, 5-{[3,5-bis(1,1-dimethylethyl)-4-hydroxyphenyl]methyl}-3-methyl-4-thiazolidinone]	2.1 ± 0.3	19.7%	
CN1C[S+]([O-])C(=Cc2cc(C(C)(C)C)c(O)c(C(C)(C)C)c2)C1=O (stereo not drawn) [Example 12, 5-{[3,5-bis(1,1-dimethylethyl)-4-hydroxyphenyl]methylene}-3-methyl-4-thiazolidinone, 1-oxide]	1.8 ± 0.4	4.8%	
CN1CS(=O)(=O)C(=Cc2cc(C(C)(C)C)c(O)c(C(C)(C)C)c2)C1=O [Example 13, 5-{[3,5-bis(1,1-dimethylethyl)-4-hydroxyphenyl]methylene}-3-methyl-4-thiazolidinone, 1,1-dioxide]	2.1 ± 0.3	8.7%	
CCN1CSC(=Cc2cc(C(C)(C)C)c(O)c(C(C)(C)C)c2)C1=O [Example 14, 5-{[3,5-Bis(1,1-dimethylethyl)-4-hydroxyphenyl]methylene}-3-ethyl-4-thiazolidinone]		6%	inhibition in vivo at 50 mg/kg [4]: 43%
CCCN1CSC(=Cc2cc(C(C)(C)C)c(O)c(C(C)(C)C)c2)C1=O [Example 15, 5-{[3,5-bis(1,1-dimethylethyl)-4-hydroxyphenyl]methylene}-3-propyl-4-thiazolidinone]		40%	inhibition in vivo at 50 mg/kg [4]: 42%
CC(C)(C)c1cc(C=C2SC(=S)N(C3CC3)C2=O)cc(C(C)(C)C)c1O [Example 18, 5-{[3,5-bis(1,1-dimethylethyl)-4-hydroxyphenyl]methylene}-3-cyclopropyl-2-thioxo-4-thiazolidinone]			inhibition in vivo at 50 mg/kg [4]: 22%
CN(C)N1CSC(=Cc2cc(C(C)(C)C)c(O)c(C(C)(C)C)c2)C1=O [Example 21, 5-{[3,5-bis(1,1-dimethylethyl)-4-hydroxyphenyl]methylene}-3-dimethylamino-4-thiazolidinone]		81%	Damage Score [1, 7]: 1.9 ± 0.3; Average Life Span [3, 6]: 151 days
CN(C)N1C[S+]([O-])C(=Cc2cc(C(C)(C)C)c(O)c(C(C)(C)C)c2)C1=O (stereo not drawn) [Example 22, 5-{[3,5-bis(1,1-dimethylethyl)-4-hydroxyphenyl]methylene}-3-(dimethylamino)-4-thiazolidinone, 1-oxide]	2.3 ± 0.3	1%	
CC(C)(C)c1cc(C=C2C(=O)NC[S+]2[O-])cc(C(C)(C)C)c1O (stereo not drawn) [Example 23, 5-{[3,5-bis(1,1-dimethylethyl)-4-hydroxyphenyl]methylene}-4-thiazolidinone, 1-oxide]	2.2 ± 0.4	28%	
CC(=O)OCCN1CSC(=Cc2cc(C(C)(C)C)c(O)c(C(C)(C)C)c2)C1=O [Example 26, 5-{[3,5-bis(1,1-dimethylethyl)-4-hydroxyphenyl]-methylene}-3-[2-(acetyloxy)ethyl]-4-thiazolidinone]	1.9 ± 0.4	30.4%	
CNCCN1CSC(=Cc2cc(C(C)(C)C)c(O)c(C(C)(C)C)c2)C1=O [Example 28, 5-{[3,5-bis(1,1-dimethylethyl)-4-hydroxyphenyl]methylene}-3-[2-(methylamino)ethyl]-4-thiazolidinone]		72%	Damage Score [1, 7]: 1.0 ± 0.4 (p=0.009)
CC(C)(C)c1cc(C=C2SCN(CCO)C2=O)cc(C(C)(C)C)c1O [Example 35, 5-{[3,5-bis(1,1-dimethylethyl)-4-hydroxyphenyl]methylene}-3-(2-hydroxyethyl)-4-thiazolidinone]	0.9 ± 0.4 (p<0.001)		inhibition in vivo at 75 mg/kg ([2]; 75 mg/kg P.O. x 29): 86%; Average Life Span ([3]; 0.05 percent by weight of compound in diet): 107 days
COc1ccc(CN2CSC(=Cc3cc(C(C)(C)C)c(O)c(C(C)(C)C)c3)C2=O)cc1 [Example 36, 5-{[3,5-bis(1,1-dimethylethyl)-4-hydroxyphenyl]methylene}-3-[(4-methoxyphenyl)methyl]-4-thiazolidinone]	2.3 ± 0.4		
CC(C)(C)c1cc(C=C2SCN(CC#N)C2=O)cc(C(C)(C)C)c1O [Example 38, 5-{[3,5-bis(1,1-dimethylethyl)-4-hydroxyphenyl]methylene}-4-oxo-3-thiazolidineacetonitrile]		1.8%	Damage Score ([1]; 200 mg/kg given orally as a suspension in 2% acacia): 1.6 ± 0.04
Cc1cc(C=C2SCN(C)C2=O)cc(C(C)(C)C)c1O [Example 61, 5-{[3-(1,1-dimethylethyl)-4-hydroxy-5-methylphenyl]methylene}-3-methyl-4-thiazolidinone]		5.3%	Damage Score [1, 7]: 1.7 ± 0.3 (p=0.03)
Cc1cc(C=C2SCN(N(C)C)C2=O)cc(C(C)(C)C)c1O [Example 62, 5-{[3-(1,1-dimethylethyl)-4-hydroxy-5-methylphenyl]methylene}-3-dimethylamino-4-thiazolidinone]	1.2 ± 0.3 (p<0.05)	11.2%	
CC(C)(C)c1cc(C=C2SC(=O)NC2=O)cc(C(C)(C)C)c1O [Example 67, 5-{[3,5-bis(1,1-dimethylethyl)-4-hydroxyphenyl]methylene}-2,4-thiazolidinedione]	1.4 ± 0.3 (p<0.05)		
CC(C)(C)c1cc(C=C2CCNC2=O)cc(C(C)(C)C)c1O [Example 69, 3-{[3,5-bis(1,1-dimethylethyl)-4-hydroxyphenyl]methylene}-2-pyrrolidinone]			Damage Score [1, 7]: 0.98 ± 0.42 (p=0.037)
CN1CCC(=Cc2cc(C(C)(C)C)c(O)c(C(C)(C)C)c2)C1=O [Example 70, 3-{[3,5-bis(1,1-dimethylethyl)-4-hydroxyphenyl]-methylene}-1-methyl-2-pyrrolidinone]	0.7 ± 0.4 (p=0.039)		
